Measurements: patent US20160367497A1, “METHODS AND COMPOSITIONS FOR TREATING NEUROPATHIES” (Washington University, priority 2007, published 2016)

Legend:
[1] = system: AMPK; experiment: AMPK and ACC phosphorylation in cortical neurons; type: cell-based, mouse; settings: for effect on resveratrol-induced AMPK phosphorylation: cortical neurons, resveratrol 10 μM, 2 h
Excerpt: FIG. 16A-F illustrates that resveratrol activates AMP kinase in cortical neurons through Lkb1 and CaMKKβ. (A) Cortical neuron cultures were established from E 13.5 Lkb1 flox/flox embryos and infected with lentivirus expressing Cre recombinase (FCIV-Cre) or GFP only (FUGW control). Lentiviral infection of cortical neurons was monitored by GFP fluorescence (A). […] Lkb1 flox/flox cortical neurons were infected with FUGW or FCIV-Cre and treated as indicated. AMPK or ACC was immunoprecipitated from neuronal lysates and western blots were probed with the respective phospho-specific antibodies. […] Lysates from AICAR treated cortical neurons is included as a positive control. (E, F) Embryonic cortical neurons were cultured from wild type and SIRT1-deficient littermates derived from SIRT1 heterozygous matings. […] Levels of total AMPK and ACC are shown in the bottom panels of C, D, E and F.
Cell culture and Reagents. Neuro2 cells obtained from ATCC were grown in MEM with 1.5 g/L sodium bicarbonate, 0.1 mM nonessential amino acids, 0.1 mM sodium pyruvate, 2 mM L-glutamine with 10% FCS. For differentiation, cells were switched to serum-starvation medium (containing 0.2% FCS). For neurite outgrowth measurements, experiments were done in quadruplicate and 100 neurites per well were randomly measured using the Metamorph software. Dorsal root ganglia sensory and cortical neurons were established from E13.5 mouse embryos, maintained in neurobasal medium supplemented with B27 (and NGF for DRG neurons) and infected with lentiviruses as described (Araki et al., 2004, Science 305:1010-1013; Hawley et al., 2005, Cell Metab 2:21-23). Resveratrol was a gift from Sirtris Pharmaceuticals (Cambridge Mass.) and AICAR was obtained from Toronto Research (North York, Canada). Splitomycin and Compound C were purchased from Biomol (Plymouth Meeting, Pa.) and Calbiochem (San Diego, Calif.). Sirtinol and nicotinamide were purchased from Sigma (Saint Louis, Mo.)
Plasmids and viruses. The dominant negative (dnAMPK) and constitutively active (caAMPK) plasmids were gifts from Russell Jones (University of Pennsylvania, Philadelphia Pa.), and pCXN-Cre was a gift of Inder Verma (Salk Institute, San Diego, Calif.). All constructs were subcloned into the lentiviral shuttle vector FCIV and verified by nucleotide sequence analysis. Viruses were prepared as previously described (Araki et al., 2004, Science 305:1010-1013). Protein and mRNA analysis. Immunoprecipitations and western blot analysis were performed by standard methods using antibodies directed against total AMPK, phosphorylated AMPK, total ACC or phosphorylated ACC that were obtained from Cell Signaling Technology (Beverley, Mass.). The phospho-AMPK antibody detects endogenous AMPK α1 and α2 when phosphorylated at threonine 172. The LKB1 antibody was purchased from Upstate (Lake Placid, N.Y.). Quantitative RT-PCR analysis was performed using Sybr-Green methodology on a model 7700 instrument (Applied Biosystems) as previously described (Araki et al., 2004, Science 305:1010-1013). Primer sequences were those used in previous studies (Motoshima, et al., 2006, J Physiol 574:63-71).
Resveratrol activation of AMPK in Neuro2a cells along with the crucial role of AMPK in promoting neurite outgrowth in these cells encouraged us to examine this pathway in primary neurons. We treated E13.5 mouse dorsal root ganglia (DRG) sensory and cortical neuron cultures with resveratrol (10 μM) or AICAR (1 mM). […]

[2] = system: neuro2A cells; experiment: cellular ATP levels, luciferase-based assay in neuro2A cells; type: cell-based
Method: To explore the role of polyphenols, in particular, of resveratrol, we tested whether resveratrol altered the activity of AMPK in neuronal cells. Neuro2a neuroblastoma cells were treated with resveratrol (10 μM) and AMPK activation was examined using phospho-AMPK specific antibodies. […] To confirm that AMPK activation by resveratrol results in typical AMPK-mediated downstream responses, we monitored phosphorylation of ACC (acetyl Co-A carboxylase), a primary target of activated AMPK. […] To examine a potential mechanism of resveratrol-mediated AMPK activation, we measured cellular ATP levels as a decreased ATP:AMP ratio increases the phosphorylation of AMPK. ATP levels were monitored using a luciferase-based assay in neuro2A cells treated with resveratrol or Oligomycin, an inhibitor of mitochondrial oxidative phosphorylation and therefore ATP production. While the ATP concentration dropped from 5.874 μM in DMSO-treated cells (control) to 0.976 μM in Oligomycin treated cells within 2 hr, the ATP concentration in resveratrol-treated Neuro2a cells was not altered from control either at 2 hr (6.33 μM) or 24 hr (6.42 μM).

[3] = system: ACC; experiment: ACC phosphorylation in brain after intraperitoneal injection; type: in vivo, mice; settings: single intraperitoneal injection 20 mg/kg; within 2 h
Method: FIG. 15A-E illustrates that resveratrol treatment causes AMPK phosphorylation in the brain. Two-month-old male mice were injected intraperitoneally with resveratrol (20 mg/kg body weight) or DMSO (vehicle) (n=3, for each treatment). Two hr after treatment, the animals were sacrificed and brain lysates were prepared. […] Total AMPK and ACC levels are shown as loading controls in B and D. (E) Densitometry was used to quantify the increased level of AMPK and ACC phosphorylation in the brain of resveratrol treated animals (* p<0.005).
To extend our in vitro results, we tested whether treating mice with resveratrol activates AMPK in the brain. We injected intraperitoneally 2-month-old male mice with either resveratrol (20 mg/kg body weight) or DMSO (vehicle) (n=3 for each group).

[4] = system: neuro2A cells; experiment: survival of Neuro2A cells in nutrient-deprived conditions; type: cell-based; settings: regardless of the FCS concentration (10% or 0.2%)
Method: When Neuro2A cells are grown in culture in presence of 10% FCS, cells proliferate and ultimately die if cells are not passaged. If grown in the presence of 0.2% FCS, neuro2A cells differentiate and project neurites but ultimately die within one week.

[5] = system: Tfam, PGC-1α and MFN2 mRNA; experiment: mitochondrial biogenesis markers, quantitative RT-PCR in Neuro2a cells; type: cell-based; settings: 10 μM, 3 d
Method: Three days later cells were shifted to serum-starvation medium containing DMSO (control) or resveratrol (10 μM). In addition, uninfected Neuro2a cells in serum-starvation medium were treated with resveratrol alone, the AMPK inhibitor Compound C (CC, Biomol International L.P. (Plymouth Meeting, Pa.)) (10 μM) alone or with resveratrol and CC together. […] Values were normalized to the 18S transcript. Data shown is representative of two independent experiments.
Protein and mRNA analysis. […] Quantitative RT-PCR analysis was performed using Sybr-Green methodology on a model 7700 instrument (Applied Biosystems) as previously described (Araki et al., 2004, Science 305:1010-1013).
We treated Neuro2a cells for 3d with either DMSO (control) or resveratrol (10 μM) in the presence or absence of the AMPK inhibitor Compound C (10 μM). We assessed mitochondrial biogenesis by monitoring mRNA levels of mitofusin 2 (MFN2), a mitochondrial protein and marker of mitochondrial mass and two key regulators of mitochondrial biogenesis, peroxisome proliferator activated receptor γ coactivator 1α (PGC1α) and mitochondrial transcription factor A (Tfam) (Kelly, et al., 2004, Genes Dev 18:357-368).

[6] = system: neuro2A cells; experiment: Neuro2a cell proliferation, Ki67 immunocytochemistry; type: cell-based; settings: 0.2% fetal calf serum; AICAR 1 mM or resveratrol 10 μM; 24 h after plating; DMSO controls 50%
Method: Neuro2a cells are a widely used as in vitro model of neuronal differentiation. These cells cease to proliferate and begin to differentiate, as evidenced by neurite outgrowth, in response to serum starvation, retinoic acid, or growth factors like neurotrophins and GDNF family ligands. […] Neuro2a cells grown under serum starvation conditions (0.2% fetal calf serum) were treated with AICAR (1 mM) or resveratrol (10 μM).

How did the “effect on resveratrol-induced AMPK phosphorylation” value (shortened to “effect”) [1] turn out when NC(=O)c1cccnc1 [Nam, nicotinamide] was run?
The value was “none of the SIRT inhibitors”.

How did the “effect” value [1] turn out when O=C(O)c1ccc2c3c1cccc3c(=O)n1c3ccccc3nc21 [STO 609] was run?
Its value is “did inhibit AMPK and ACC phosphorylation”.

Which “effect” value [1] does the source give for CC(NC(=O)c1ccccc1/N=C/c1c(O)ccc2ccccc12)c1ccccc1 (stereo not shown) [Sirtinol] here?
Its value is “none of the SIRT inhibitors”.

Which “phosphorylation of AMPK and ACC” value ([1]; E13.5 cortical neurons, 10 μM) does the source give for Oc1ccc(C=Cc2cc(O)cc(O)c2)cc1 [resveratrol] here?
The value was “stimulated phosphorylation of AMPK and ACC”.

What about the ATP concentration ([2]; 2 hr) of the same compound?
Its ATP concentration is 6.33 µM.

What about the ATP concentration ([2]; 24 hr) of the same compound?
The ATP concentration was 6.42 µM.

What about the “increased ACC phosphorylation in the brain” value [3] of the same compound?
The value was 2.1 fold.

And the cell survival [4]?
Its cell survival is “resistant to death for a prolonged period of time”.

And the “increase in MFN2 mRNA” value [5]?
Its value is 2 fold.

What about the “increase in PGC-1α mRNA” value [5] of the same compound?
The value was 2 fold.

And the “increase in Tfam mRNA” value [5]?
Its value is about 18 fold.

What about the “proliferating cells (Ki67)” value [6] of the same compound?
The value was 11%.

O=C1CCc2c(ccc3ccccc23)O1 [splitomycin] was tested. Which “effect” value [1] did it give?
The value was “none of the SIRT inhibitors”.
